Source: PubChem BioAssay (NCI)
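How tested: cells in 96-well plates exposed to compound for 48 hours at five concentrations. Abbreviation: GI50, concentration required for 50% inhibition of growth. TGI is the concentration that stops growth completely.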

How the values were obtained:
Test in all cases: NCI-60 cell line screen, 48 h
[1] = system: NCI-H460 lung
[2] = system: HCT-15 colon
[3] = system: HOP-92 NSCLC
[4] = system: RPMI-8226 leukemia
[5] = system: OVCAR-8 ovarian
[6] = system: NCI-H23 lung
[7] = system: LOX IMVI melanoma
[8] = system: K-562 leukemia
[9] = system: OVCAR-3 ovarian
[10] = system: HCT-116 colon
[11] = system: M14 melanoma
[12] = system: OVCAR-5 ovarian
[13] = system: A498 renal
[14] = system: A549 NSCLC
[15] = system: PC-3 prostate
[16] = system: OVCAR-4 ovarian
[17] = system: EKVX NSCLC
[18] = system: IGROV1 ovarian
[19] = system: HL-60(TB) leukemia
[20] = system: UACC-62 melanoma
[21] = system: NCI-H522 lung
[22] = system: SK-OV-3 ovarian
[23] = system: MDA-MB-231 breast
[24] = system: HT29 colon
[25] = system: SF-295 CNS
[26] = system: UACC-257 melanoma
[27] = system: T-47D breast
[28] = system: HCC-2998 colon
[29] = system: SR leukemia
[30] = system: ACHN renal
[31] = system: UO-31 renal
[32] = system: SNB-19 CNS
[33] = system: TK-10 renal
[34] = system: KM12 colon
[35] = system: NCI-H226 lung
[36] = system: MCF7 breast
[37] = system: RXF 393 renal
[38] = system: CCRF-CEM leukemia
[39] = system: SNB-75 CNS
[40] = system: 786-0 renal
[41] = system: HOP-62 NSCLC
[42] = system: DU-145 prostate
[43] = system: U251 CNS
[44] = system: SF-539 CNS
[45] = system: MALME-3M melanoma
[46] = system: NCI/ADR-RES ovarian
[47] = system: SF-268 CNS
[48] = system: MDA-MB-435
[49] = system: SN12C renal
[50] = system: HS 578T breast
[51] = system: SK-MEL-5 melanoma
[52] = system: BT-549 breast

**Q.** How did the GI50 [1] turn out when `Fc1cnccc1-c1nc2ccc3[nH]ncc3c2c2c1CCCC2` was run?
**A.** 1410 nM

**Q.** What about the TGI [1] of the same compound?
**A.** 7740 nM

**Q.** And the GI50 [2]?
**A.** 844 nM

**Q.** And the TGI [2]?
**A.** > 100000 nM

**Q.** What about the GI50 [3] of the same compound?
**A.** 1620 nM

**Q.** What about the TGI [3] of the same compound?
**A.** 9970 nM

**Q.** And the GI50 [4]?
**A.** 1200 nM

**Q.** What about the TGI [4] of the same compound?
**A.** 6330 nM

**Q.** What about the GI50 [5] of the same compound?
**A.** 2100 nM

**Q.** And the TGI [5]?
**A.** > 100000 nM

**Q.** And the GI50 [6]?
**A.** 2220 nM

**Q.** What about the TGI [6] of the same compound?
**A.** 59900 nM

**Q.** What about the GI50 [7] of the same compound?
**A.** 1580 nM

**Q.** What about the TGI [7] of the same compound?
**A.** 12600 nM

**Q.** What about the GI50 [8] of the same compound?
**A.** 2630 nM

**Q.** What about the TGI [8] of the same compound?
**A.** > 100000 nM

**Q.** What about the GI50 [9] of the same compound?
**A.** 2460 nM

**Q.** And the TGI [9]?
**A.** 10900 nM

**Q.** And the GI50 [10]?
**A.** 489 nM

**Q.** What about the TGI [10] of the same compound?
**A.** 5030 nM

**Q.** What about the GI50 [11] of the same compound?
**A.** 1580 nM

**Q.** And the TGI [11]?
**A.** > 100000 nM

**Q.** And the GI50 [12]?
**A.** 3160 nM

**Q.** And the TGI [12]?
**A.** > 100000 nM

**Q.** What about the GI50 [13] of the same compound?
**A.** 700 nM

**Q.** What about the TGI [13] of the same compound?
**A.** 2960 nM

**Q.** And the GI50 [14]?
**A.** 1250 nM

**Q.** And the TGI [14]?
**A.** > 100000 nM

**Q.** What about the GI50 [15] of the same compound?
**A.** 2130 nM

**Q.** And the TGI [15]?
**A.** > 100000 nM

**Q.** What about the GI50 [16] of the same compound?
**A.** 3500 nM

**Q.** And the TGI [16]?
**A.** > 100000 nM

**Q.** What about the GI50 [17] of the same compound?
**A.** 442 nM

**Q.** What about the TGI [17] of the same compound?
**A.** 13000 nM

**Q.** And the GI50 [18]?
**A.** 688 nM

**Q.** And the TGI [18]?
**A.** 11200 nM

**Q.** What about the GI50 [19] of the same compound?
**A.** 2200 nM

**Q.** What about the TGI [19] of the same compound?
**A.** 7300 nM

**Q.** What about the GI50 [20] of the same compound?
**A.** 1440 nM

**Q.** What about the TGI [20] of the same compound?
**A.** 5750 nM

**Q.** What about the GI50 [21] of the same compound?
**A.** 1310 nM

**Q.** And the TGI [21]?
**A.** 8760 nM

**Q.** What about the GI50 [22] of the same compound?
**A.** 342 nM

**Q.** And the TGI [22]?
**A.** 3660 nM

**Q.** And the GI50 [23]?
**A.** 2300 nM

**Q.** What about the TGI [23] of the same compound?
**A.** > 100000 nM

**Q.** What about the GI50 [24] of the same compound?
**A.** 2490 nM

**Q.** What about the TGI [24] of the same compound?
**A.** > 100000 nM

**Q.** And the GI50 [25]?
**A.** 2530 nM

**Q.** What about the TGI [25] of the same compound?
**A.** > 100000 nM

**Q.** And the GI50 [26]?
**A.** 5480 nM

**Q.** And the TGI [26]?
**A.** > 100000 nM

**Q.** And the GI50 [27]?
**A.** 1510 nM

**Q.** And the TGI [27]?
**A.** 9010 nM

**Q.** What about the GI50 [28] of the same compound?
**A.** 3200 nM

**Q.** What about the TGI [28] of the same compound?
**A.** > 100000 nM

**Q.** And the GI50 [29]?
**A.** 519 nM

**Q.** What about the TGI [29] of the same compound?
**A.** 5080 nM

**Q.** And the GI50 [30]?
**A.** 466 nM

**Q.** What about the TGI [30] of the same compound?
**A.** > 100000 nM

**Q.** What about the GI50 [31] of the same compound?
**A.** 1910 nM

**Q.** And the TGI [31]?
**A.** 8040 nM

**Q.** And the GI50 [32]?
**A.** 2890 nM

**Q.** And the TGI [32]?
**A.** > 100000 nM

**Q.** What about the GI50 [33] of the same compound?
**A.** 605 nM

**Q.** And the TGI [33]?
**A.** > 100000 nM

**Q.** And the GI50 [34]?
**A.** 605 nM

**Q.** What about the TGI [34] of the same compound?
**A.** > 100000 nM

**Q.** What about the GI50 [35] of the same compound?
**A.** 2710 nM

**Q.** And the TGI [35]?
**A.** > 100000 nM

**Q.** What about the GI50 [36] of the same compound?
**A.** 1930 nM

**Q.** What about the TGI [36] of the same compound?
**A.** 12100 nM

**Q.** What about the GI50 [37] of the same compound?
**A.** 612 nM

**Q.** And the TGI [37]?
**A.** 3290 nM

**Q.** What about the GI50 [38] of the same compound?
**A.** 1840 nM

**Q.** What about the TGI [38] of the same compound?
**A.** > 100000 nM

**Q.** And the GI50 [39]?
**A.** 1410 nM

**Q.** What about the TGI [39] of the same compound?
**A.** 5540 nM

**Q.** What about the GI50 [40] of the same compound?
**A.** 1670 nM

**Q.** What about the TGI [40] of the same compound?
**A.** 5230 nM

**Q.** What about the GI50 [41] of the same compound?
**A.** 909 nM

**Q.** What about the TGI [41] of the same compound?
**A.** 94200 nM

**Q.** And the GI50 [42]?
**A.** 1670 nM

**Q.** What about the TGI [42] of the same compound?
**A.** 43300 nM

**Q.** And the GI50 [43]?
**A.** 1960 nM

**Q.** What about the TGI [43] of the same compound?
**A.** > 100000 nM

**Q.** What about the GI50 [44] of the same compound?
**A.** 1290 nM

**Q.** What about the TGI [44] of the same compound?
**A.** 4540 nM

**Q.** And the GI50 [45]?
**A.** 2760 nM

**Q.** And the TGI [45]?
**A.** 9060 nM

**Q.** And the GI50 [46]?
**A.** 2410 nM

**Q.** What about the TGI [46] of the same compound?
**A.** > 100000 nM

**Q.** What about the GI50 [47] of the same compound?
**A.** 1990 nM

**Q.** What about the TGI [47] of the same compound?
**A.** 9820 nM

**Q.** What about the GI50 [48] of the same compound?
**A.** 1250 nM

**Q.** And the TGI [48]?
**A.** > 100000 nM

**Q.** And the GI50 [49]?
**A.** 2140 nM

**Q.** And the TGI [49]?
**A.** > 100000 nM

**Q.** And the GI50 [50]?
**A.** 661 nM

**Q.** And the TGI [50]?
**A.** 6700 nM

**Q.** And the GI50 [51]?
**A.** 2350 nM

**Q.** What about the TGI [51] of the same compound?
**A.** > 100000 nM

**Q.** And the GI50 [52]?
**A.** 1280 nM

**Q.** And the TGI [52]?
**A.** 7740 nM
